Reference: the OPERA property sets (Mansouri et al. 2018)
≈ marks a conversion by molar mass, not a printed value.

Settings: 25 °C

SMILES | solubility [mM]
CC(=O)[C@@]1(O)CC[C@H]2[C@@H]3C[C@H](C)C4=CC(=O)C=C[C@]4(C)[C@@]3(F)[C@@H](O)C[C@@]21C | 0.0797 (≈ 0.03 mg/mL)
COc1c2occc2c(OC)c2c(=O)cc(C)oc12 | 4 (≈ 1.04 mg/mL)
Cc1cccc2c1Cc1ccccc1-2 | 0.00605 (≈ 0.00109 mg/mL)
CC(C)(C)c1ccccc1 | 0.22 (≈ 0.0295 mg/mL)
OC(c1ccccc1)(c1ccccc1)c1ccccc1 | 5.5 (≈ 1.43 mg/mL)
ClC1=C(Cl)[C@]2(Cl)[C@H]3[C@H]([C@@H]4C=C[C@H]3C4)[C@@]1(Cl)C2(Cl)Cl (racemic) | 4.66e-05 (≈ 1.7e-05 mg/mL)
CCC1(C2=CCCCC2)C(=O)NC(=O)NC1=O | 6.77 (≈ 1.6 mg/mL)
Cc1ccc(S(N)(=O)=O)cc1 | 18.4 (≈ 3.16 mg/mL)
C[C@]12CC[C@H](O)CC1=CC[C@@H]1[C@@H]2CC[C@]2(C)C(=O)CC[C@@H]12 | 0.129 (≈ 0.0372 mg/mL)
CC(C)(C)C(=O)OCC(=O)[C@@]1(O)CC[C@H]2[C@@H]3CCC4=CC(=O)C=C[C@]4(C)[C@H]3[C@@H](O)C[C@@]21C | 0.0261 (≈ 0.0116 mg/mL)
C[C@]12CCC(=O)C=C1CC[C@@H]1[C@@H]2CC[C@]2(C)C(=O)CC[C@@H]12 | 0.202 (≈ 0.0578 mg/mL)
CCn1cc(C(=O)O)c(=O)c2cnc(N3CCNCC3)nc21 | 1.06 (≈ 0.322 mg/mL)
Cc1ccc(C)nc1 | 1530 (≈ 164 mg/mL)
C1CCCNCC1 | 1710 (≈ 170 mg/mL)
Cc1cc(-c2ccc(N)c(C)c2)ccc1N | 6.12 (≈ 1.3 mg/mL)
C=CCCCCC | 0.185 (≈ 0.0182 mg/mL)
C=CCCCCCCC | 0.00887 (≈ 0.00112 mg/mL)
Clc1cccc(-c2cccc(Cl)c2)c1 | 0.00159 (≈ 0.000355 mg/mL)
CC[C@H](O)C(C)C | 197 (≈ 20.1 mg/mL)
CC(C)C(C)C(C)C | 0.0201 (≈ 0.0023 mg/mL)
CCOC(=O)CC#N | 177 (≈ 20 mg/mL)
CCSCCSP(=S)(OC)OC | 0.812 (≈ 0.2 mg/mL)
CCCC(C)=O | 499 (≈ 43 mg/mL)
CCCCCCCCCC | 0.000365 (≈ 5.2e-05 mg/mL)
c1ccc2[nH]ccc2c1 | 30.4 (≈ 3.56 mg/mL)
CCCCCCc1ccccc1 | 0.00556 (≈ 0.000902 mg/mL)

SMILES | solubility [mM]
CCC(C)(C)C | 0.214 (≈ 0.0184 mg/mL)
O=S(=O)(O)CS(=O)(=O)O | 8900 (≈ 1570 mg/mL)
C=CCC(C)C | 0.57 (≈ 0.048 mg/mL)
C[C@@H](O)C(N)=O | 8780 (≈ 782 mg/mL)
ClCCCBr | 14.2 (≈ 2.24 mg/mL)
O=[N+]([O-])c1cc(C2CCCCC2)c(O)c([N+](=O)[O-])c1 | 0.0563 (≈ 0.015 mg/mL)
CCCCCCCI | 0.0155 (≈ 0.0035 mg/mL)
NCCCCCC(=O)O | 3850 (≈ 505 mg/mL)
C#C[C@]1(OC(C)=O)CC[C@H]2[C@@H]3CCC4=CC(=O)CC[C@@H]4[C@H]3CC[C@@]21C | 0.0161 (≈ 0.00547 mg/mL)
O=C(O)C(c1ccccc1)c1ccccc1 | 0.598 (≈ 0.127 mg/mL)
Cc1cccc2ccccc12 | 0.181 (≈ 0.0258 mg/mL)
O=C(O)COc1cccc(Cl)c1Cl | 1.55 (≈ 0.343 mg/mL)
CC(C)(N)C(=O)O | 1760 (≈ 181 mg/mL)
c1ccc2c(c1)Oc1ccccc1O2 | 0.00489 (≈ 0.000901 mg/mL)
CCOC(=O)c1ccccc1 | 4.79 (≈ 0.72 mg/mL)
O=S(=O)(Cl)c1ccc(I)cc1 | 0.0539 (≈ 0.0163 mg/mL)
O=C(O)c1cc(Cl)ccc1[N+](=O)[O-] | 48 (≈ 9.67 mg/mL)
Cc1ccnc(C)c1 | 3020 (≈ 324 mg/mL)
Clc1ccc2c(c1)Oc1ccccc1O2 | 0.00146 (≈ 0.000319 mg/mL)
N[C@@H](Cc1cnc[nH]1)C(=O)O | 294 (≈ 45.6 mg/mL)
Clc1ccc(Br)cc1 | 0.235 (≈ 0.0449 mg/mL)
CCc1cccc2ccccc12 | 0.0685 (≈ 0.0107 mg/mL)
Cc1ccc(C)c(O)c1 | 29 (≈ 3.54 mg/mL)
CCCC(=O)CC | 147 (≈ 14.7 mg/mL)
Cc1ccccc1S(N)(=O)=O | 9.46 (≈ 1.62 mg/mL)
O=C1NC(=O)C([N+](=O)[O-])C(=O)N1 | 5.2 (≈ 0.9 mg/mL)

SMILES | solubility [mM]
CC(C)CCBr | 1.3 (≈ 0.196 mg/mL)
Cc1c2ccccc2cc2ccccc12 | 0.00136 (≈ 0.000261 mg/mL)
CCC(O)CC | 584 (≈ 51.5 mg/mL)
CCCCCO | 250 (≈ 22 mg/mL)
Cc1cc(=O)[nH]o1 | 858 (≈ 85 mg/mL)
Clc1ccc(Cl)c(-c2ccccc2)c1 | 0.00502 (≈ 0.00112 mg/mL)
O=C(O)CCCCCCC(=O)O | 67.9 (≈ 11.8 mg/mL)
COc1ccc2c(c1)c(CC(=O)O)c(C)n2C(=O)c1ccc(Cl)cc1 | 0.00262 (≈ 0.000937 mg/mL)
C[C@@H]1CC[C@@]2(OC1)O[C@H]1C[C@H]3[C@@H]4CC=C5C[C@@H](O)CC[C@]5(C)[C@H]4CC[C@]3(C)[C@H]1[C@@H]2C | 4.82e-05 (≈ 2e-05 mg/mL)
Clc1cccc(-c2ccccc2)c1 | 0.0192 (≈ 0.00363 mg/mL)
CC(=O)O[C@]1(C(C)=O)CC[C@H]2[C@@H]3C=C(Cl)C4=CC(=O)C=C[C@]4(C)[C@H]3CC[C@@]21C | 0.0113 (≈ 0.00457 mg/mL)
CCC(C)(C)CO | 74.4 (≈ 7.6 mg/mL)
Cc1cccc2sc3nncn3c12 | 8.45 (≈ 1.6 mg/mL)
CCCCCCCC | 0.00578 (≈ 0.00066 mg/mL)
O=C1NC(=O)c2ccccc21 | 2.45 (≈ 0.36 mg/mL)
CCc1ccc2ccccc2c1 | 0.0513 (≈ 0.00801 mg/mL)
Cc1c(N)c(=O)n(-c2ccccc2)n1C | 3580 (≈ 728 mg/mL)
CSCCC(N)C(=O)O (racemic) | 331 (≈ 49.3 mg/mL)
S=C=Nc1cccc(Cl)c1 | 0.112 (≈ 0.019 mg/mL)
CNC(=O)ON=C(C)SC | 358 (≈ 58 mg/mL)
O=C(O)c1ccnc(C(=O)O)c1 | 14.9 (≈ 2.49 mg/mL)
Clc1cc(Cl)c(Cl)c(-c2c(Cl)c(Cl)cc(Cl)c2Cl)c1Cl | 3.42e-07 (≈ 1.47e-07 mg/mL)
CC(C)C(=O)C(C)C | 49.9 (≈ 5.7 mg/mL)
CCCC(C)(C)C | 0.0439 (≈ 0.0044 mg/mL)

Same assay, conditions: 28 °C

SMILES | solubility [mM]
c1ccc2c(c1)CCCC2 | 0.354 (≈ 0.0468 mg/mL)

Same assay, conditions: 30 °C

SMILES | solubility [mM]
COC(=O)c1ccccc1O | 48.6 (≈ 7.4 mg/mL)
C#CC=C | 34.3 (≈ 1.79 mg/mL)
ClC(Cl)Br | 18.5 (≈ 3.03 mg/mL)
